Laboratory results from patent US20260034192A1 (University of Saskatchewan, priority 2022, published 2026).
“And” between values parts separate entries of the source, which are not always exact repeats. Equal values may be shown once. Marks after values point to notes of the source that are not given here. Square brackets hold non-standard residues; d marks the D form. Peptide text beside a SMILES is read from it. dPhe(4-Cl) = N[C@H](Cc1ccc(Cl)cc1)C(=O)O; d2Nal = N[C@H](Cc1ccc2ccccc2c1)C(=O)O; dCit = NC(=O)NCCC[C@@H](N)C(=O)O; d3Pal = N[C@H](Cc1cccnc1)C(=O)O

What was measured:
[1] = test system: alpacas; assay: Alpaca Cetrorelix known stage study, two injections (Example 2); assay type: in vivo; conditions: for Wave emergence after the first Cetrorelix injection, average: 2 x 1.5 mg i/m, D5 and D10 groups combined
Text: Methods: The specific objective of this experiment was to identify the pattern of growth for the dominant follicle in alpacas following treatment with a GnRH antagonist during two contrasting stages of the follicular wave. Based on data from natural spontaneous waves in alpacas, the dominant follicle is expected to be in early- to mid-growing phase (6 to 7 mm in diameter) on Day 5 and in mid-static phase (9 to 10 mm) on Day 10, so the treatments were planned to begin on these days.
The experimental design is illustrated FIG. 3. Transrectal ovarian ultrasonography was performed using an Esoate My Lab 5 ultrasound machine and a 7.5 linear array transducer attached to a custom-build rigid PVC pipe handle. The pipe was slightly curved at the transducer end to facilitate manipulation of the transducer. The transducer and the plastic handle were lubricated using methyl cellulose ultrasound gel and inserted slowly into the rectum after manual removal of the faeces. Reproductive track and ovaries were located and 10 to 20 second video clips of left and right ovary were recorded. Sketches of ovaries were drawn daily at the time of imaging to record location, size and number of follicles >2 mm in diameter as well as the size and location of the corpus luteum (if present). Ultrasound examinations were performed daily. The experimental data recording began when a spontaneous emergence of a new follicular wave detected in an animal (defined as Extant follicular wave). The day of wave emergence was designated as Day 0 and was defined retrospectively as the first detection of the dominant follicle at 4 or 5 mm size with concomitant increase in number of 3-4 mm follicles.
The first group of alpacas (Control group) were given no treatment, their ovaries were examined daily and blood samples were obtained daily from Day 4 to 12 to compare hormonal data from analogous days after Cetrorelix treatment. The second group of alpacas (D5 group) were given the first intramuscular injection of 1.5 mg (3 mL of 0.5 mg per mL solution) Cetrorelix acetate on Day 5 and a second injection of 3 mL on Day 6 (i.e., two i/m injections of 1.5 mg Cetrorelix at 24 hour interval for a total dose of 3 mg). The Cetrorelix dose administered was approximately equal to 20 ug/Kg body weight per day (considering average body weight of alpaca=75 kg) and based on the previous studies in llama and cattle (Silva et al, 2011, Ulker et al 2001). Alpacas in the third group (D10 group) were given the first intramuscular injection of 1.5 mg Cetrorelix acetate on Day 10 and a second injection of 1.5 mg on Day 11.
Cetrorelix treatments were given during the extant follicular wave. Changes in the size of the dominant follicle, largest subordinate follicle, and the number of ≥3 mm follicles were recorded daily from spontaneous emergence of extant follicular wave to Day 6 of next (post-treatment) follicular wave emergence. The inter-wave interval was determined based on duration between emergence of successive follicular waves.
Blood samples (5 to 8 mL) were collected in heparinized tubes (BD Vacutainer, BD Franklin Lakes, NJ, USA) via jugular venipuncture. Blood samples were kept on ice packs till centrifugation at 200 rpm (within 1 hr of collection) to obtain plasma samples that were immediately frozen at −20° C. until measurement of plasma LH. Plasma samples were obtained on Day 4 to 7 in Group 2 (that is, 1 day before to 1 day after Cetrorelix treatment) and on Day 9 to 12 in Group 3. For direct comparison, plasma samples were obtained from Day 4 to 12 in control group.

[2] = test system: pubertal Hereford-cross beef heifers; assay: Cetrorelix in luteal versus preovulatory phase, hCG ovulation challenge in heifers (Example 6); assay type: in vivo, cattle; conditions: high and low progesterone, 3 mg i/m
Description: Experimental design: The study was conducted on pubertal Hereford-cross beef heifers (n=24) at the U. Sask. Livestock and Forage Centre of Excellence (LFCE) using a 2×2 factorial design (Table 15). Initial transrectal ultrasonography was performed to confirm post-pubertal or post-partum cyclicity by the presence or absence of a corpus luteum (CL). Animals with a CL were weighed and treated with prostaglandin F2a analog as in Example 4 and monitored by ultrasonography to detect ovulation. Day of ovulation was considered the day of wave emergence (defined as Day 0).
On the day of ovulation, heifers were randomized into 4 groups. Those in the preovulatory groups were given prostaglandin on Days 4 and 4.5 of the wave while those in the luteal groups were allowed to maintain the CL (i.e., no prostaglandin treatment). Treatments was given as outlined in Table 16 and schematic time line FIG. 8. Cetrorelix groups were given 3 mg cetrorelix i/m on Day 5. All animals were treated with hCG (Chorulon, 1500 IU, im) on Day 7 of the wave (i.e., 48 hr after Cetrorelix/saline treatment) to determine the ovulatory potential of the dominant follicle.
Blood samples were taken 24 hr after cetrorelix or no treatment (control groups) for measurement of plasma concentrations of LH and progesterone. Data was analyzed in a similar manner to Example 4.

[3] = 2 x 1.5 mg i/m starting Day 5 (D 5)
[4] = 2 x 1.5 mg i/m starting Day 10 (D 10)
[5] = 2 x 1.5 mg i/m starting Day 10 (D 10), n = 6

CC(=O)N[C@H](Cc1ccc2ccccc2c1)C(=O)N[C@H](Cc1ccc(Cl)cc1)C(=O)N[C@H](Cc1cccnc1)C(=O)N[C@@H](CO)C(=O)N[C@@H](Cc1ccc(O)cc1)C(=O)N[C@H](CCCNC(N)=O)C(=O)N[C@@H](CC(C)C)C(=O)N[C@@H](CCCNC(=N)N)C(=O)N1CCC[C@H]1C(=O)N[C@H](C)C(N)=O [Cetrorelix, N-acetyl-3-(2-naphthyl)-D-alanyl-4-chloro-D-phenylalanyl-3-(3-pyridyl)-D-alanyl-L-seryl-L-tyrosyl-D-citrullyl-L-leucyl-L-arginyl-L-prolyl-D-alaninamide] (Ac-[d2Nal][dPhe(4-Cl)][d3Pal]SY[dCit]LRP[dA]-NH2)
Extant Wave: Total Number of Follicles on Day of Emergence ([1]; 1.5 mg Cetrorelix acetate i/m twice at 24 hr interval starting Day 5 (D 5)): 10.71 ± 0.97
Extant Wave: Total Number of Follicles on Day of Emergence ([1]; 1.5 mg Cetrorelix acetate i/m twice at 24 hr interval starting Day 10 (D 10)): 9.14 ± 1.39
Day of largest subordinate follicle maximum diameter [1, 3]: 1.86 ± 1.01 days
Degree of Synchrony: Days from treatment to next wave emergence [1, 3]: 7.71 ± 0.36 days and 7.7 ± 0.36 days
Dominant Follicle Diameter on Day 5 (mm) [1, 3]: 6.64 ± 0.43 mm
Dominant Follicle Diameter on Day 10 (mm) [1, 3]: 5.50 ± 0.87^b mm
Dominant Follicle Diameter on Day of Cetrorelix Treatment (mm) [1, 3]: 6.64 ± 0.43^a mm
Dominant Follicle End of Growth (days) [1, 3]: 4.86 ± 0.40^b days
Interwave Interval [1, 3]: 12.7 ± 0.36 days and 12.7 days
Interwave Interval (days) [1, 3]: 12.71 ± 0.36^b days
Largest Subordinate Follicle Diameter on Day 5 (mm) [1, 3]: 3.21 ± 0.21 mm
Largest Subordinate Follicle Diameter on Day 10 (mm) [1, 3]: 2.71 ± 0.81 mm
Largest Subordinate Follicle Diameter on Day of Cetrorelix Treatment (mm) [1, 3]: 3.21 ± 0.21 mm
Largest Subordinate Follicle Maximum Diameter (mm) [1, 3]: 4.57 ± 0.40 mm
Next Wave: Total Number of Follicles on Day of Emergence [1, 3]: 13.14 ± 1.47
Day of dominant follicle maximum diameter [1, 4]: 10.3±0.68 days and 10.29 ± 0.68^a days
Day of largest subordinate follicle maximum diameter [1, 4]: 6.00 ± 1.36 days
Dominant Follicle Diameter on Day 5 (mm) [1, 4]: 9.71 ± 1.77 mm
Dominant Follicle Diameter on Day 10 (mm) [1, 4]: 10.36 ± 0.85^a mm
Dominant Follicle Diameter on Day of Cetrorelix Treatment (mm) [1, 4]: 10.36 ± 0.85^b mm
Dominant Follicle End of Growth (days) [1, 4]: 8.00 ± 0.38^a days
Dominant Follicle Length of Static Phase [1, 4]: 4.9 ± 0.40 days
Dominant Follicle Length of Static Phase (days) [1, 4]: 4.86 ± 0.40^ab days
Dominant Follicle Maximum Diameter (mm) [1, 4]: 10.9±0.70 mm and 10.93 ± 0.70^a mm
Dominant Follicle Onset of Regression [1, 4]: 12.9 ± 0.34 days
Dominant Follicle Onset of Regression (days) [1, 4]: 12.86 ± 0.34^a days
Largest Subordinate Follicle Diameter on Day 5 (mm) [1, 4]: 4.21 ± 0.76 mm
Largest Subordinate Follicle Diameter on Day 10 (mm) [1, 4]: 4.00 ± 0.97 mm
Largest Subordinate Follicle Diameter on Day of Cetrorelix Treatment (mm) [1, 4]: 4.00 ± 0.97 mm
Largest Subordinate Follicle Maximum Diameter (mm) [1, 4]: 5.79 ± 1.02 mm
Interwave Interval [1, 5]: 17.71 ± 0.52 days and 18.17 days
Interwave Interval (days) [1, 5]: 17.71 ± 0.52^c# days
Next Wave: Total Number of Follicles on Day of Emergence [1, 5]: 12.14 ± 1.08
Wave emergence after the first Cetrorelix injection, average [1]: 7.92 ± 0.24 days
Wave emergence after the first Cetrorelix injection, average ([1]; listed as Cetrorelix acetate): about 7.92±0.24 days
Interval from first treatment to next wave emergence, range ([1]; D5 group): 7 to 9 days
Interval from first treatment to next wave emergence, range ([1]; D10 group): 7 to 9 days
Time for which dominant/pre-ovulatory follicle maintains ovulatory potential after cetrorelix treatment [2]: at least 48 hr
